Experiments:
[1] = test system: Cloudman S91 mouse melanoma cell line; assay: Trypsinization detachment time of S91 cells; assay type: cell-based
Protocol: (§1) Following this microscopic examination, cells were detached from dishes by trypsin. The time required for detachment by trypsin was recorded as an additional indicator of the phenotypic effects of test compounds. For each treatment, a subsample of cells was counted to determine the effects of treatment compounds on cellular proliferation. The remainder of cells were used for determination of melanin content. Melanin was extracted from cells by vortexing for 15 min in 1N NaOH. Standards were prepared by dissolving melanin (Sigma) in 1 N NaOH (Eller, et al., 1996). Absorbance of standards and samples was measured at 475 nm. Melanin was expressed as pg melanin/cell.

[2] = test system: Cloudman S91 mouse melanoma cell line; assay: Microscopic morphology (differentiation) of S91 cells; assay type: cell-based
Protocol: (§2) The Cloudman S91 mouse melanoma cell line was obtained from American Type Culture Collection (ATCC). Cells were cultured in Dulbecco's Modified Eagles Medium (DMEM) containing 10% calf serum, 2 mM L-glutamine, 10 U Penicillin/ml and 10 ug Streptomycin/ml according to a previously published protocol (Eller, et al., Proc. Natl. Acad. Sci. 93:1087-92. 1996). For testing propylene glycol and analogues for induction of melanogenesis, S91 cells were plated at 10^5 cells/35 mm dish in 10% calf serum. One day after plating, media was removed and replaced with media containing 2% calf serum and test compounds (Eller, et al., 1996). Cells were cultured for 6 days at 37° C. in 5% CO2 in a humidified incubator. Following this treatment period, cells were examined microscopically and the portion of dedifferentiated and differentiated cells was estimated. Previous studies have shown that dedifferentiated S91 cells have a rounded, spindly appearance while differentiated S91 cells have a flattened, cuboidal, multipolar and dendritic appearance (Orlow, et al., Exp. Cell Res. 191:209-218, 1990).

[3] = test system: Cloudman S91 mouse melanoma cell line; assay: Melanin content of S91 cells after treatment with test compound; assay type: cell-based
Protocol: The Cloudman S91 mouse melanoma cell line was obtained from American Type Culture Collection (ATCC). […] For testing propylene glycol and analogues for induction of melanogenesis, S91 cells were plated at 10^5 cells/35 mm dish in 10% calf serum. […] Cells were cultured for 6 days at 37° C. in 5% CO2 in a humidified incubator. Following this treatment period, cells were examined microscopically and the portion of dedifferentiated and differentiated cells was estimated.
as §1, with “Melanin was extracted from cells by vortexing for 15 min in 1N NaOH. Standards were prepared by dissolving melanin (Sigma) in 1 N NaOH (Eller, et al., 1996).” left out

[4] = test system: Cloudman S91 mouse melanoma cell line; assay: Cell count (proliferation, toxicity) of treated S91 cells; assay type: cell-based
Protocol: as §2, §1

[5] = test system: tyrosinase activity in S91 mouse melanoma cells; assay: Induction of tyrosinase activity in S91 cells; conditions: for more tyrosinase activity than 5-norbornene-2,2-dimethanol: calculated from data in FIG. 5
Protocol: Compounds were examined for their ability to induce tyrosinase activity in S91 mouse melanoma cells. […] Following treatments, cells were trypsinized, counted by Coulter, pelleted by centrifugation at 1000×g, and analyzed for tyrosinase activity using modifications of previously described procedures (Pomerantz, S. H., 1966, J. Biol. Chem. 241:161-168; Jara, et al., 1988, Pigment Cell Res. 1: 332-339.). Briefly, cell pellets were solubilized by sonicating for 5 seconds in 600 ul 50 mM phosphate buffer pH 6.8 containing 0.5% Triton-X100, followed by vortexing, incubation on ice for 30 min, and then revortexing. From this, 200 ul aliquots were combined with 200 ul of reaction mixture containing either 75 uM tyrosine, 75 uM L-Dopa, and 2 uCi L-[3,5-^3H]Tyrosine in 50 mM NaPO4 pH 6.8 (L-Dopa+), or, 75 uM tyrosine, and 2 uCi L-[3,5-^3H]Tyrosine in 50 mM NaPO4 pH 6.8 (L-Dopa−) and incubated 1 hr at 37° C. Reactions were stopped by addition of 400 ul 10% activated charcoal in 0.1N HCl and incubation on ice for 15 min. This mixture was centrifuged at 17,300×g for 5 min, and 400 ul supernatant was then filtered through a 0.22 uM GV Durapore centifugal filter unit (Millipore) by centrifuging at 17,300×g for 5 min. Filtrate was added to 4 ml Fisher Plus scintillation fluid and counted on a Hewlett Packard scintillation counter. Tyrosinase activity was calculated as dpm/hr/ug protein and dpm/hr/10^3 cells. Each sample was analyzed with and without L-Dopa, a necessary cofactor for tyrosinase (Pomerantz, S. H., 1966, J. Biol. Chem. 241:161-168; McLane, et al., 1987, Biochem. Biophys. Res. Commun. 145:719-725). All reported tyrosinase values are exclusive of counts that occurred in buffer blanks and L-dopa negative aliquots. Protein was determined on aliquots of cell lysate, extracellular particulate lysate or media by the Bradford Coomassie Blue method (Bradford, 1967, Anal. Biochem. 72:248-254) using Bio-Rad Protein Assay Kit I.

[6] = test system: American short-haired guinea pigs; assay: Topical melanogenesis (pigmentation rating) in guinea pigs; assay type: in vivo, guinea pig
Protocol: Compounds were tested for melanogenic activity in vivo by application to American short-haired guinea pigs. Treatment sites were created by removal of fur using Nair® brand depilatory. In the Table, the numbers presented are the relative melanogenesis rating (mean ±SE), and are arranged according to the relative location on the animal, with the head being to the left and the tail being to the right. Propylene glycol (PG=13.6M), 2,3-butanediol (2,3-BD=10.95M), and 1,2-cis-cyclopentanediol (1,2-cs-CPD=10.7M) were applied as full strength solutions. 3,3-dimethyl-1,2-butanediol (3,3-M-1,2-BD) was applied as a 4M solution dissolved in ethanol. Two weeks following cessation of treatments, the degree of pigmentation was subjectively rated according to the following scale:
In order to minimize the effects of dimunition of response from head to tails of animals, all future experiments were done using only treatment spots located towards the tails of animals (c and d in Table 7). Deemed as additionally beneficial, in this area of the animal differences of responsiveness to strong and weak inducers of pigmentation, as deduced from cell culture, were greatest. […] Pigmentation ratings were corrected for background (control treatment spots), normalized to 1M to account for the different amounts of each agent applied, and then normalized to results for 1,2-PG (Table 8). […] It is anticipated that further improvements in formulation will additionally improve responsiveness to 5-NBene-2,2-DM and other compounds in this invention.
In FIG. 5, a, b, c and d indicate treatment spots that transverse the anterior-posterior axis along the backs of guinea pigs.

[7] = test system: nitric oxide in cell-free media from S91 cells; assay: Nitric oxide in cell-free media from S91 cells (Greiss reagent); assay type: cell-based, mouse; conditions: 4 days
Protocol: In a related experiment, nitric oxide was measured in cell-free media from S91 cells following treatment with a range of concentrations of 2,3-cis/exo-pinanediol or 5-norbornene-2,2-dimethanol for 4 days. In biological fluids, nitric oxide is converted into nitrite and nitrate with seconds of production. Therefore, nitric oxide is measured by first converting nitrate to nitrite using nitrate reductase, followed by addition of Greiss reagent to detect nitrite as optical density at 550 nm (Moshage, et al., 1995, Clin. Chem. 41:892-896; Schmidt, et al., 1995, Biochemica 2:22)). […] Moreover, the relative melanogenic potency of 2,3-cis/exo-pinanediol and 5-norbornene-2,2-dimethanol shown in FIG. 5 paralleled the relative potency of these compounds with regards to induction of nitric oxide (Table 17). […] It follows that measurement of induction of nitric oxide, cGMP or PKG may provide biochemically relevant screening assays for compounds that may be melanogenic. Thus, the utilization of these assays to screen compounds for melanogenic activity is claimed in the present invention.

Compound: CC(O)CCO (stereo not shown) [BD-1,3, 1,3-butanediol]
- Trypsinization Detachment Time ([1]; 50 mM): 3 min
- Trypsinization Detachment Time ([1]; 150 mM): 6 min
- Morphology Flattened Cuboidal ([2]; 50 mM): 75%
- Morphology Rounded Spindly ([2]; 50 mM): 25%
- Morphology Flattened Cuboidal ([2]; 150 mM): 100%
- pg Melanin/Cell ([3]; 50 mM): 15.5 pg Melanin/Cell
- ug Melanin ([3]; 50 mM): 0.99 µg
- pg Melanin/Cell ([3]; 150 mM): 18.1 pg Melanin/Cell
- ug Melanin ([3]; 150 mM): 0.87 µg
- Cells (×10^6) ([4]; 50 mM): 0.064 ×10^6
- Cells (×10^6) ([4]; 150 mM): 0.048 ×10^6
- reduction of cell numbers ([4]; 150 mM): one-third

Compound: CCO [ETOH, Ethanol]
- Trypsinization Detachment Time ([1]; 1.0% (170 mM)): 3 min
- Trypsinization Detachment Time ([1]; 2.0% (340 mM)): 3 min
- Trypsinization Detachment Time ([1]; 5.0% (850 mM)): 3 min
- Morphology Rounded Spindly ([2]; 1.0% (170 mM)): 100%
- Morphology Rounded Spindly ([2]; 2.0% (340 mM)): 100%
- Morphology Rounded Spindly ([2]; 5.0% (850 mM)): 100%
- pg Melanin/Cell ([3]; 1.0% (170 mM)): 11.0 pg Melanin/Cell
- ug Melanin ([3]; 1.0% (170 mM)): 1.14 µg
- pg Melanin/Cell ([3]; 2.0% (340 mM)): 12.5 pg Melanin/Cell
- ug Melanin ([3]; 2.0% (340 mM)): 1.25 µg
- pg Melanin/Cell ([3]; 5.0% (850 mM)): 5.3 pg Melanin/Cell
- ug Melanin ([3]; 5.0% (850 mM)): 0.17 µg
- induction of melanogenesis (in words) ([3]; concentrations tested in Example 2): did not induce melanogenesis
- effect on cells ([4]; 340 mM): no effect on cells
- toxicity (low cell survival) ([4]; 850 mM): toxic
- Cells (×10^6) ([4]; 1.0% (170 mM)): 0.104 ×10^6
- Cells (×10^6) ([4]; 2.0% (340 mM)): 0.100 ×10^6
- Cells (×10^6) ([4]; 5.0% (850 mM)): 0.032 ×10^6

Compound: OCCCO [PG-1,3, 1,3-propanediol]
- Trypsinization Detachment Time ([1]; 50 mM): 3 min
- Trypsinization Detachment Time ([1]; 150 mM): 6 min
- Morphology Flattened Cuboidal ([2]; 50 mM): 25%
- Morphology Rounded Spindly ([2]; 50 mM): 75%
- Morphology Flattened Cuboidal ([2]; 150 mM): 50%
- Morphology Rounded Spindly ([2]; 150 mM): 50%
- pg Melanin/Cell ([3]; 50 mM): 20.4 pg Melanin/Cell
- ug Melanin ([3]; 50 mM): 1.31 µg
- pg Melanin/Cell ([3]; 150 mM): 23.6 pg Melanin/Cell
- ug Melanin ([3]; 150 mM): 1.04 µg
- Cells (×10^6) ([4]; 50 mM): 0.064 ×10^6
- Cells (×10^6) ([4]; 150 mM): 0.044 ×10^6
- reduction of cell numbers ([4]; 150 mM): one-third

Compound: CC1(C)[C@@H]2C[C@H]1[C@@](C)(O)[C@@H](O)C2 (relative stereo) [2,3-cs/ex-PD, 2,3-cis/exo-pinanediol ([1R,2R,3S,5R]-[−]-pinanediol)]
- Fold Induction of Tyrosinase Relative to Controls ([5]; 0.5 mM (Table 19)): 5.1X
- more tyrosinase activity than 5-norbornene-2,2-dimethanol ([5]; 500 uM): 2.6 fold
- Fold Induction of Tyrosinase Relative to Controls ([5]; 1 mM (Table 19)): 17.6X
- more tyrosinase activity than 5-norbornene-2,2-dimethanol ([5]; 1 mM): 5.2 fold
- Fold Induction of Tyrosinase Relative to Controls ([5]; 2.5 mM (Table 19)): 119X
- more tyrosinase activity than 5-norbornene-2,2-dimethanol ([5]; 2.5 mM): 7.3 fold
- Fold Induction of Tyrosinase Relative to Controls ([5]; 5 mM (Table 19)): 50.6X
- relative melanogenic potency in S91 cells (in words) ([5]; Table 19 data): only slightly more potent than (1S, 2S, 3R, 5S)-(+)-pinanediol
- Pigmentation Ratings (X ± SE; n = 6; scale 0 to +4) ([6]; spot a (anterior), 8.7M 1,2-cis-CPD in 20% ETOH, 1M 5-NBene-2,2-DM in 8.5 M propylene glycol, 2% 2-pyrrolidone, 20% ETOH, 1M 2,3-cs/ex PD in 50% ETOH): 2.00 ± 0.20
- Pigmentation Ratings (X ± SE; n = 6; scale 0 to +4) ([6]; spot b, formulations as E220): 1.75 ± 0.17
- Pigmentation Ratings (X ± SE; n = 6; scale 0 to +4) ([6]; spot c, formulations as E220): 1.75 ± 0.17
- Pigmentation Ratings (X ± SE; n = 6; scale 0 to +4) ([6]; spot d (posterior), formulations as E220): 1.04 ± 0.32
- nmoles NO/10^6 Cells ([7]; 0.5 mM): 10.9 ± 0.2 nmoles NO/10^6 Cells
- uM NO ([7]; 0.5 mM): 3.54 ± 0.06 µM
- nmoles NO/10^6 Cells ([7]; 1 mM): 24.5 ± 5.4 nmoles NO/10^6 Cells
- uM NO ([7]; 1 mM): 6.36 ± 1.56 µM
- nmoles NO/10^6 Cells ([7]; 2.5 mM): 131 ± 15 nmoles NO/10^6 Cells
- uM NO ([7]; 2.5 mM): 12.6 ± 0.5 µM
- nmoles NO/10^6 Cells ([7]; 5 mM): 174 ± 15 nmoles NO/10^6 Cells
- uM NO ([7]; 5 mM): 11.0 ± 1.1 µM
- Cells (×10^6) ([4]; 0.5 mM, 4 days, X ± SE, n = 3): 0.325 ± 0.002 ×10^6
- Cells (×10^6) ([4]; 1 mM, 4 days, X ± SE, n = 3): 0.258 ± 0.010 ×10^6
- Cells (×10^6) ([4]; 2.5 mM, 4 days, X ± SE, n = 3): 0.099 ± 0.014 ×10^6
- Cells (×10^6) ([4]; 5 mM, 4 days, X ± SE, n = 3): 0.064 ± 0.006 ×10^6

Source: US7250157B2, “Dermatological compositions and methods” (Applied Genetics Incorporated Dermatics, priority 1996, dated 2007)
